# Data from paper PMC6094102 (Proceedings of the National Academy of Sciences of the …, 2018).
# Where two headings read alike, the source gives them in different places.
# Tests used:
# GSK3β [1] = target: T1, GSK3β (Homo sapiens, UniProt P49841); test: GSK3β kinase assay, IC50 determination; assay type: biochemical
# MDA-MB-231 cells [2] = test: Cell proliferation by cell counting; assay type: cell-based; settings: 3 µM
# DYRK2 [3] = target: T2, DYRK2 (Homo sapiens, UniProt Q92630); test: pT25 RPT3 phosphorylation in HEK293T cells stably expressing FLAG-DYRK2; assay type: cell-based
# T2 sequence (Q92630 1-601): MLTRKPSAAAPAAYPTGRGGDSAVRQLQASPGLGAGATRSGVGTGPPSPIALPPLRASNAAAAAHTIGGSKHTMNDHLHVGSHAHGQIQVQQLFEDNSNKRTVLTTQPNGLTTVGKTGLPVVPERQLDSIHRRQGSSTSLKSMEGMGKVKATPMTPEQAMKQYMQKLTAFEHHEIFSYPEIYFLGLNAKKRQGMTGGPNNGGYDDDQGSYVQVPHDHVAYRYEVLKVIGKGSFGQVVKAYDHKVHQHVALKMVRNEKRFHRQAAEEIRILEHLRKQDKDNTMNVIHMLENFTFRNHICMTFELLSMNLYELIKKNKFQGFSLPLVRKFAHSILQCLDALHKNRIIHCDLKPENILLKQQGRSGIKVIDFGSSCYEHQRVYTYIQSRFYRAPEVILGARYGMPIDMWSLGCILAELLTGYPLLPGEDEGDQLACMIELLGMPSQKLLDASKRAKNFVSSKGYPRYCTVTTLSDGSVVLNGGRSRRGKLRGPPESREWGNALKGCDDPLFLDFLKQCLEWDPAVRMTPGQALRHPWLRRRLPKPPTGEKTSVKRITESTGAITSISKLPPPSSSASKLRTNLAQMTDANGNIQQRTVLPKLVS
# DYRK2 [4] = target: T2, DYRK2; test: DYRK2 kinase assay, IC50 determination; assay type: biochemical; settings: 0.025 mM, 0.1 mM or 2 mM ATP
# DYRK3 = target: T3, DYRK3 (Homo sapiens, UniProt O43781); test: DYRK3 kinase assay, IC50 determination
# T3 sequence (O43781 1-588): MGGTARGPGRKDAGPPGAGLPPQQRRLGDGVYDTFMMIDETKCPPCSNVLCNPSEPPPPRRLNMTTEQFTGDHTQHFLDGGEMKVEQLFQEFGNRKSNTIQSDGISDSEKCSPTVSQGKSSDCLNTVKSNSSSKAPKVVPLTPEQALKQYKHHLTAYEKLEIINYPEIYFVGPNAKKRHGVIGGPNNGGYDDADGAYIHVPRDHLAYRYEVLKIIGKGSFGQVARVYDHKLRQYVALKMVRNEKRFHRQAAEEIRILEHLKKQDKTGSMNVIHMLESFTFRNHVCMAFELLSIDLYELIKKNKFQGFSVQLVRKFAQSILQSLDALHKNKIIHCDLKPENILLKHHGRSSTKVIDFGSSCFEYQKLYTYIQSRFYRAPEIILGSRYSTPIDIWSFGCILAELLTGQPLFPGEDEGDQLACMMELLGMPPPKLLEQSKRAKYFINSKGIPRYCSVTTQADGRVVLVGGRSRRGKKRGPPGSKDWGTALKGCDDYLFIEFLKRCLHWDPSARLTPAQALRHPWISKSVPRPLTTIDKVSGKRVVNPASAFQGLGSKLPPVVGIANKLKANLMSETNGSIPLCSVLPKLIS
# MM.1S.BR cells = test: Cell viability of bortezomib-resistant myeloma cells; assay type: cell-based
# [5] = system: 26S proteasome in HaCaT cells; test: Proteasome activity in total cell lysates, Suc-LLVY-AMC; assay type: cell-based; settings: 10 μM, 1 h
# [6] = system: UBL-YFP-PEST in HEK293T cells; test: UBL-YFP-PEST reporter degradation; assay type: cell-based; settings: 10 μM, 1 h pretreatment, CHX 2 h
# [7] = system: MDA-MB-231 xenograft tumors; test: MDA-MB-231 tumor xenograft in NSG mice; assay type: in vivo
# [8] = system: 26S proteasome in MDA-MB-231 cells; test: Proteasome activity in total cell lysates, Suc-LLVY-AMC; assay type: cell-based; settings: 1 h
# 26S proteasome = test: Affinity-purified 26S proteasome, bodipy-casein degradation in vitro; assay type: biochemical, human; settings: 10 μM
# 5TGM1-GFP cells = test: Cell proliferation by cell counting; assay type: cell-based; settings: 1 µM, 5 days
# RPMI8226.BR cells = test: Cell viability of bortezomib-resistant myeloma cells; assay type: cell-based
# MDA-MB-231 cells [9] = test: Matrigel transwell invasion assay; assay type: cell-based; settings: MDA-MB-231, 5 μM, 24 h
# GSK3β [10] = target: T1, GSK3β; settings: read-out: IC50 GSK3β; cited from earlier work
# Hs578T cells = test: Matrigel transwell invasion assay; assay type: cell-based; settings: 5 μM, 24 h
# [11] = system: multiple myeloma cell lines; test: Caspase 3/7 activity; assay type: cell-based; settings: multiple myeloma cell lysates, 16 h
# T1 sequence (P49841 whole entry): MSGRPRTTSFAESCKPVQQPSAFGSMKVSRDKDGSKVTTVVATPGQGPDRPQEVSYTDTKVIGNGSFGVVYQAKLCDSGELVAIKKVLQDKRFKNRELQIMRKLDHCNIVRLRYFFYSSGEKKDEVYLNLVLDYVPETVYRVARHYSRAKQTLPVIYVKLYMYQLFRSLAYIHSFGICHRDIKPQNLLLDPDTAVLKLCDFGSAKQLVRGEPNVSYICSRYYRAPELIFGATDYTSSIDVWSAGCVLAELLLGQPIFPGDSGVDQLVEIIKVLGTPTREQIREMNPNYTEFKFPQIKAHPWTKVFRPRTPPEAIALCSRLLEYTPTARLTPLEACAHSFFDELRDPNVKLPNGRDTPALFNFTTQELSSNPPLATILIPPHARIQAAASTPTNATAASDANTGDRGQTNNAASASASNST
smiles,measurement,setting,value
COc1cc(/C=C/C(=O)CC(=O)/C=C/c2ccc(O)c(OC)c2)ccc1O [curcumin],IC50,GSK3β [1],> 3000 nM
same,cell proliferation in DYRK2 KO cells,MDA-MB-231 cells [2]; MDA-MB-231 DYRK2 KO,did not exhibit a further decrease in cell proliferation
same,rate of cell proliferation compared with DMSO-treated controls,"MDA-MB-231 cells [2]; MDA-MB-231 WT, 5 days",markedly slower rate of cell proliferation
same,concentration at which curcumin inhibits DYRK2 in cells,DYRK2 [3],1 to 10 µM
same,inhibitor concentration of maximal suppression of pT25 RPT3 phosphorylation,DYRK2 [3]; 0.5 h,3–10 μM
same,effect of higher concentrations of ATP on the IC50 for DYRK2,DYRK2 [4],modest effect
same,IC50,DYRK3,20 nM
same,cytotoxicity versus bortezomib-sensitive WT counterpart,"MM.1S.BR cells; MM.1S.BR, 10 μM, 24 h",comparable cytotoxicity
same,proteasome activity with curcumin treatment in DYRK2-null cells,[5]; DYRK2-null HaCaT,no further decrease of proteasome activity
same,decrease of proteasome activity toward Suc-LLVY-AMC,[5]; HaCaT parental,25–40%
same,UBL-YFP-PEST reporter protein degradation,[6],stabilized
same,Ki-67 staining in xenograft tumors,[7]; 300 mg/kg i.p.,greatly attenuated
same,tumor burden,"[7]; 300 mg/kg i.p. every alternate day, after 2 wk of treatment, NSG mice",significantly reduced tumor burden
same,reduction of proteasome activity in curcumin-treated mouse tumors,"[7]; 300 mg/kg i.p., whole-tumor lysates, Suc-LLVY-AMC",30%
same,proteasome activity with curcumin treatment in DYRK2-null cells,"[8]; DYRK2-null MDA-MB-231, 10 μM",no further decrease of proteasome activity
same,decrease of proteasome activity toward Suc-LLVY-AMC,"[8]; MDA-MB-231 parental, 10 μM",25–40%
same,effect on activity of affinity-purified proteasome to degrade BODIPY-casein,26S proteasome,no significant effect
same,rate of cell proliferation compared with DMSO-treated controls,5TGM1-GFP cells,markedly slower rate of cell proliferation
same,cytotoxicity versus bortezomib-sensitive WT counterpart,"RPMI8226.BR cells; RPMI8226.BR, 10 μM, 24 h",comparable cytotoxicity
same,"cell invasion, 3D matrigel invasion assay",MDA-MB-231 cells [9],largely blocked
same,IC50,GSK3β [10],66 nM
same,"cell invasion, 3D matrigel invasion assay",Hs578T cells,largely blocked
same,caspase3/7 activity,[11],significant increase
CC(C)C[C@H](NC(=O)[C@H](Cc1ccccc1)NC(=O)c1cnccn1)B(O)O [bortezomib],resistance to bortezomib relative to bortezomib-sensitive cells,MM.1S.BR cells; MM.1S.BR vs MM.1S,20- to 100 fold
same,resistance to bortezomib relative to bortezomib-sensitive cells,RPMI8226.BR cells; RPMI8226.BR vs RPMI8226,20- to 100 fold
